Measurements published in patent US20170073337A1, “DIHYDROTHIAZINE AND DIHYDROOXAZINE DERIVATIVES HAVING BACE1 INHIBITORY ACTIVITY” (Shionogi & Co., Ltd., priority 2014, published 2017).

Experiments:
Recombinant human BACE1 [1] = target: T1, Recombinant human BACE1 (Homo sapiens, UniProt P56817); assay: Assay of BACE1 inhibitory activity: 96-well; type: biochemical; settings: Assay format 96-well
T1 construct: purchased R&D Systems
Experimental: 48.5 μL of substrate peptide solution (Biotin-XSEVNLDAEFRHDSGC-Eu: X=ε-amino-n-capronic acid. Eu=Europium cryplate) was added to each well of 96-hole half-area plate (a black plate: Costar), and after addition of 0.5 μl of the compound of the present invention (DMSO solution) and 1 μl of Recombinant human BACE1(R&D Systems), the reaction mixture was incubated at 30° C. for 3.5 hours. The substrate peptide was synthesized by reacting Cryptate TBPCOOH mono SMP (CIS bio international) with Biotin-XSEVNLDAEFRHDSGC (Peptide Institute, Inc.).
After the incubation for reaction, 50 μl of 8.0 μg/ml Streptavidin-XL665 (CIS bio international) dissolved in phosphate buffer (150 mmol/L […]—KH2PO4, pH 7.0, 0.008% Triton X-100, 0.8 mol/L KF) was added to each well and left stand at 30° C. for 45 minutes.

[2] = test system: Aβ production in neuroblastoma SH-SY5Y cells (SH/APPwt); assay: β-amyloid (Aβ) production inhibitory effect in cell: 96-well; type: cell-based; settings: Homo sapiens, Assay format 96-well
Experimental: Neuroblastoma SH-SY5V cells (SH/APPwt) with human wild-type R-APP excessively expressed therein were prepared at 8×10^5 cells/mL, and 150 μl portions thereof were inoculated into each well of a 96-well culture plate (Falcon). The cells were cultured for 2 hours at […]. in a 5% gaseous carbon dioxide incubator. […] Namely, the final DMSO concentration was 1%, and the amount of the cell culture was 200 μl. After the incubation was performed for 24 hours from the addition of the test compound, 100 μl of the culture supernatant was collected from each fraction. The amount of the Aβ in each fraction was measured. The Aβ amount was measured as follows. 10 μl of a homogeneous time resolved fluorescence (HTRF) measurement reagent (Amyloid β1-40 peptide: CIS bio international) and 10 μof the culture supernatant were put into a 384-well half area microplate (black microplate, Costar) and mixed with each other, and then left standing overnight at 4° C. while the light was shielded.

Recombinant human BACE1 [3] = target: T1, Recombinant human BACE1; assay: Assay of BACE1 inhibitory activity: 384-well; type: biochemical; settings: Assay format 384-well
In short: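 Recombinant human BACE1 was incubated 2 h at 25 °C with a biotin/Eu-cryptate-labelled peptide substrate and compound in DMSO. Streptavidin-XL665 in pH 7.0 phosphate buffer containing 0.8 mol/L KF was then added for 30 min at 25 °C for HTRF detection.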

[4] = test system: Aβ production in neuroblastoma SH-SY5Y cells (SH/APPwt); assay: β-amyloid (Aβ) production inhibitory effect in cell: 384-well; type: cell-based; settings: Homo sapiens, Assay format 384-well
In short: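 SH-SY5Y cells overexpressing human wild-type APP were seeded together with test compound (final DMSO 1%) and cultured for 21 h. Aβ1-40 in the supernatant was measured by HTRF after overnight incubation at 4 °C in the dark, reading fluorescence at 620 and 665 nm.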

[5] = Brain distribution studies; type: in vivo; settings: rat, 30 minutes later, area ratio brain/plasma; for Kp at 0.5 h: brain / plasma, iv, 0.5 mg/mL/kg
Experimental: Compound of the present invention was intravenously administered to a rat at 0.5 mg/mL/kg dosage. 30 minutes later, all blood was drawn from the abdominal aorta under isoflurane anesthesia for death from exsanguination. […] The obtained blood was used as plasma after centrifuging. The control plasma was added to the brain sample at 1:1. The control brain homogenate was added to the plasma sample at 1:1. Each sample was measured using LC/MS/MS. The obtained area ratio (a brain/plasma) was used for the brain Kp value.

T1 sequence (P56817 46-501): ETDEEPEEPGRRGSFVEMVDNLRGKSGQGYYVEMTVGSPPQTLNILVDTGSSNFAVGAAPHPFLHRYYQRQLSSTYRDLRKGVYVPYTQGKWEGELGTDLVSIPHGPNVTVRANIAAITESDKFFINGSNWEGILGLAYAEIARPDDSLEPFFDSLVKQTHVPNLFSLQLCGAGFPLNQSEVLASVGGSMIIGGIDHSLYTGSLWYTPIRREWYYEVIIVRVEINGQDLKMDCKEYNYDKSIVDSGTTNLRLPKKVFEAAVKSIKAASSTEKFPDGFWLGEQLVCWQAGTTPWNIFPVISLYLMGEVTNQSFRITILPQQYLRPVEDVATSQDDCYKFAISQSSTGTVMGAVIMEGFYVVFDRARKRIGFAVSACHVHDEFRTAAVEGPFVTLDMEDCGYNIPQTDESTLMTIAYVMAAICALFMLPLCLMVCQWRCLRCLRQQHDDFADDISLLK

SMILES | IC50 (Recombinant human BACE1 [1]) [nM] | IC50 [2] [nM] | IC50 (Recombinant human BACE1 [3]) [nM] | IC50 [4] [nM] | Kp at 0.5 h [5] | Kp Brain ([5]; intravenous 0.5 mg/mL/kg)
C[C@H]1[C@@H](C(F)(F)F)OC(N)=N[C@]1(C)c1cc(NC(=O)c2ccc(C#N)cn2)ccc1F [Compound I-28] | 22.6 | 1.5 | – | – | – | –
CO[C@H]1[C@@H](CF)OC(N)=N[C@]1(C)c1cc(NC(=O)c2ccc(F)cn2)ccc1F [Compound I-25] | 156 | 4.31 | – | – | – | –
Cc1nc(C(=O)Nc2ccc(F)c([C@@]3(C)N=C(N)O[C@H](C(F)(F)F)[C@@H]3C)c2)co1 [Compound I-32] | 43.6 | 2.39 | – | – | – | –
CO[C@H]1[C@@H](CF)OC(N)=N[C@]1(C)c1cc(NC(=O)c2cnc(OCF)cn2)ccc1F [Compound I-24] | 97 | 2.28 | – | – | – | –
CO[C@H]1[C@@H](CF)OC(N)=N[C@]1(C)c1cc(NC(=O)c2ccc(F)cn2)ccc1Cl [Compound I-20] | 72.7 | 4.19 | – | – | – | –
C[C@H]1SC(N)=N[C@](C)(c2cc(NC(=O)c3cnc(C(F)F)cn3)ccc2F)[C@H]1F [Compound I-65] | – | – | 21.9 | 1.1 | 1.7 | –
C[C@]1(c2cc(NC(=O)c3ccc(F)cn3)ccc2F)N=C(N)OCC12CC(F)(F)C2 [Compound I-45] | 134 | 5.71 | – | – | – | –
C[C@]1(c2cc(NC(=O)c3cnc(OCF)cn3)ccc2F)N=C(N)OCC12CC(F)(F)C2 [Compound I-44] | 69.6 | 2.11 | – | – | – | –
COc1cnc(C(=O)Nc2ccc(F)c([C@@]3(C)N=C(N)O[C@H](C(C)(F)F)[C@@H]3F)c2)cn1 [Compound I-42] | – | – | 14.7 | 21 | 2 | –
COc1cnc(C(=O)Nc2ccc(F)c([C@@]3(C)N=C(N)O[C@H]([C@H](C)F)[C@@H]3F)c2)cn1 [Compound I-17] | 59.7 | 3.23 | – | – | – | –
C[C@@H]1[C@@H](C(F)(F)F)OC(N)=N[C@]1(C)c1cc(NC(=O)c2ccc(C#N)cn2)ccc1F [Compound I-27] | 40.5 | 6.7 | – | – | – | –
CO[C@H]1[C@@H](CF)OC(N)=N[C@]1(C)c1cc(NC(=O)c2ccc(C#N)cn2)ccc1Cl [Compound I-18] | 18 | 0.573 | – | – | – | –
C[C@]1(c2cc(NC(=O)c3ccc(F)cn3)ccc2F)N=C(N)O[C@H](CF)[C@@H]1OCC(F)(F)F [Compound I-11] | 102 | 4.21 | – | – | – | –
CC[C@H]1SC(N)=N[C@](C)(c2cc(NC(=O)c3cnc(OCF)cn3)ccc2F)[C@H]1F [Compound I-66] | – | – | 5.62 | 0.13 | – | –
C[C@H]1SC(N)=N[C@](C)(c2cc(NC(=O)c3cnc(OCC(F)F)cn3)ccc2F)[C@H]1F [Compound I-48] | – | – | 7.49 | 5.4 | 2.1 | –
C[C@H]1[C@H](C(F)(F)F)OC(N)=N[C@]1(C)c1cc(NC(=O)c2ccc(C#N)cn2)ccc1F [Compound I-29] | 1560 | 93.5 | – | – | – | –
CC(F)(F)[C@H]1OC(N)=N[C@](C)(c2cc(NC(=O)c3ccc(C#N)cn3)ccc2F)[C@H]1F [Compound I-40] | – | – | 21.1 | 6 | 0.74 | –
C[C@H]1[C@@H](C(F)(F)F)OC(N)=N[C@]1(C)c1cc(NC(=O)c2cnc(OCF)cn2)ccc1F [Compound I-41] | – | – | 14.6 | 15 | – | 1.9
C[C@H]1SC(N)=N[C@](C)(c2cc(NC(=O)c3cnc(OC(F)F)cn3)ccc2F)[C@H]1F [Compound I-47] | – | – | 4.77 | 1.2 | 1.1 | –

SMILES | IC50 (Recombinant human BACE1 [1]) [nM] | IC50 [2] [nM] | IC50 (Recombinant human BACE1 [3]) [nM] | IC50 [4] [nM] | Kp at 0.5 h [5] | Kp Brain ([5]; intravenous 0.5 mg/mL/kg)
COc1cnc(C(=O)Nc2ccc(F)c([C@@]3(C)N=C(N)S[C@H](C)[C@@H]3OC)c2)cn1 [Compound I-90] | – | – | 15.3 | 0.51 | – | –
COc1cnc(C(=O)Nc2ccc(F)c([C@@]3(C)N=C(N)O[C@H]([C@@H](C)F)[C@@H]3F)c2)cn1 [Compound I-71] | – | – | 12 | 0.54 | – | –
C[C@H]1SC(N)=N[C@](C)(c2cc(NC(=O)c3ccc(F)cn3)ccc2F)[C@H]1F [Compound I-116] | – | – | 7.84 | 0.99 | 1.8 | –
Cc1cc(C#N)cnc1C(=O)Nc1ccc(F)c([C@@]2(C)N=C(N)S[C@H](C)[C@@H]2F)c1 [Compound I-52] | – | – | 7.62 | 0.42 | 0.63 | –
C[C@H]1SC(N)=N[C@](C)(c2cc(NC(=O)c3cnc(OCC(F)(F)F)cn3)ccc2F)[C@H]1F [Compound I-46] | – | – | 23.6 | 2.4 | 1.9 | –
COc1cnc(C(=O)Nc2ccc(F)c([C@@]3(C)N=C(N)SCC34CC(F)(F)C4)c2)cn1 [Compound I-55] | – | – | 19.8 | 0.3 | – | –
C[C@H]1SC(N)=N[C@](C)(c2cc(NC(=O)c3cnc(OCF)cn3)ccc2F)C12CC(F)(F)C2 [Compound I-62] | – | – | 7.74 | 0.25 | 4.8 | –
COc1cnc(C(=O)Nc2ccc(F)c([C@@]3(C)N=C(N)O[C@H](C(F)(F)C4CC4)[C@@H]3F)c2)cn1 [Compound I-83] | – | – | 30.3 | 14 | – | –
C[C@H]1SC(N)=N[C@](C)(c2cc(NC(=O)c3ncc(OCC(F)(F)F)cn3)ccc2F)[C@H]1F [Compound I-53] | – | – | 14.5 | 0.89 | – | –
CO[C@H]1[C@@H](C)SC(N)=N[C@]1(C)c1cc(NC(=O)c2ccc(C#N)cn2)ccc1F [Compound I-88] | – | – | 14.4 | 0.13 | – | –
C[C@H]1[C@@H](C(F)F)OC(N)=N[C@]1(C)c1cc(NC(=O)c2cnc(OCF)cn2)ccc1F [Compound I-33] | 49.2 | 1.07 | – | – | – | –
C[C@H]1SC(N)=N[C@](C)(c2cc(NC(=O)c3ccc(F)cn3)ccc2F)C12CC(F)(F)C2 [Compound I-63] | – | – | 11.9 | 5.4 | – | –
COc1ccc(C(=O)Nc2ccc(F)c([C@@]3(C)N=C(N)S[C@H](C)[C@@H]3F)c2)nn1 [Compound I-108] | – | – | 136 | 8.8 | – | –
C[C@H]1[C@@H](C(F)F)OC(N)=N[C@]1(C)c1cc(NC(=O)c2ccc(C#N)cn2)ccc1F [Compound I-31] | 22.3 | 0.668 | – | – | – | –
C[C@]1(c2cc(NC(=O)c3ccc(C#N)cn3)ccc2F)N=C(N)O[C@H]2[C@@H]1OCC2(F)F [Compound I-35] | 13.1 | 0.391 | – | – | – | –
COCC(F)(F)[C@H]1OC(N)=N[C@](C)(c2cc(NC(=O)c3cnc(OCF)cn3)ccc2F)[C@H]1F [Compound I-79] | – | – | 13.2 | 4.5 | – | –
C[C@]1(c2cc(NC(=O)c3cnc(OCF)cn3)ccc2F)N=C(N)S[C@H](CO)[C@@H]1F [Compound I-109] | – | – | 10.8 | 0.45 | – | –
CC(F)(F)[C@H]1OC(N)=N[C@](C)(c2cc(NC(=O)c3cnc(OCC(F)(F)F)cn3)ccc2F)[C@H]1F [Compound I-75] | – | – | 15.6 | 8.3 | – | –
